What is called IC50 is the concentration needed to halve the response being measured.

The values below come from paper PMC6525071 (Cell chemical biology, 2019).

Data set [1] has as its system DLBCL cell lines. Kind of data set: Rescue of IKE-induced cell death by co-treatment with ferroptosis inhibitors. The data set is classed as cell-based.
For data set [2], the system named is SUDHL6 cells. The data set is described as follows: Untargeted lipidomics. The data set is classed as cell-based. Conditions: for effect of co-treatment on IKE-induced lipidomic changes: 10 μM co-treatment with 500 nM IKE.
Data set [3] relates to LY8. Kind of data set: DLBCL cell line sensitivity to IKE, Cell Titer-Glo viability. The data set is classed as cell-based. The note with it: read-out: cell line sensitivity class (IC50), LY8, IKE 24 hours. For orientation: Cellular ATP, detected with luciferase, serves as a proxy for viable cell number.
In data set [4] the test system is HBL1. Described as above. The class given is cell-based. Conditions: read-out: cell line sensitivity class (IC50), HBL1, IKE 24 hours.
In data set [5] the test system is RIVA. The description is as above. The class given is cell-based. The note with it: read-out: cell line sensitivity class (IC50), IKE 24 hours.
Data set [6] relates to U937. The description is as above. The class given is cell-based. Conditions: read-out: cell line sensitivity class (IC50), U937, IKE 24 hours.
Data set [7] has as its system LY7. Described as above. The data set is classed as cell-based. The note with it: read-out: cell line sensitivity class (IC50), LY7, IKE 24 hours.
Data set [8] deals with SUDHL-6 cells. Kind of data set: Reduced glutathione measurement in cells. The class given is cell-based.
In data set [9] the test system is SUDHL-6 cells. The data set is described as follows: Lipid ROS by flow cytometry with C11-BODIPY. The class given is cell-based. For orientation: Flow cytometry measures light scatter and fluorescence of single cells or particles in a stream.
The subject of data set [10] is SUDHL-6 cells. Kind of data set: Immunofluorescence of dihydropyridine-MDA-lysine adduct in cells. The class given is cell-based. Conditions: IKE treatment.
The subject of data set [11] is SUDHL-6 cells. The data set is described as follows: RT-qPCR gene expression in cells. The data set is classed as cell-based. Conditions: for effect of co-treatment on IKE-induced upregulation of lipid metabolism genes: 10 μM co-treatment with 500 nM IKE.
Data set [12] can be described thus: Pharmacokinetic analysis in mice with three administration routes. The data set is classed as in vivo, mouse. The note with it: single dose IP, IV, PO, NOD/SCID mice, 5% DMSO in HBSS at pH 4.
A short description of data set [13]: Pharmacokinetic analysis in NCG mice bearing SUDHL6 xenografts. The data set is classed as in vivo, mouse.
Data set [14] has as its system SUDHL6 xenograft tumor tissue. The data set is described as follows: GSH in tumor tissue after a single IKE dose. The class given is in vivo, mouse. The note with it: single dose 50 mg/kg IKE IP, starting at 4 hours.
For data set [15], the system named is SUDHL6 xenograft tumor tissue. The data set is described as follows: RT-qPCR in tumor tissue after a single IKE dose. The class given is in vivo, mouse. The note with it: single dose 50 mg/kg IKE, starting at 3 h. On the technique in general: In qPCR the cycle at which signal appears reflects the starting amount.
Data set [16] in a line: Mouse weight during efficacy study. The data set is classed as in vivo. Conditions: starting from day 9.
For data set [17], the system named is SUDHL6 xenograft tumor tissue. The data set is described as follows: Immunofluorescence on frozen tumor sections from efficacy study. The class given is in vivo, mouse.
In data set [18] the test system is SUDHL6 xenograft tumor tissue. Kind of data set: TBARS assay on tumor tissue from efficacy study. The data set is classed as in vivo, mouse.
In data set [19] the test system is caspase-3. Kind of data set: Caspase-3 western blot on tumor tissue. The data set is classed as in vivo, mouse. The note with it: upon IKE treatment, efficacy study.
Data set [20] concerns cell lines. The note with it: ref Larraufie et al., 2015, cited from earlier work.
For data set [21] the following is noted: ref Larraufie et al., 2015; cited from earlier work.
The test system of data set [22] is cells. Kind of data set: Cell survival test of free fatty acids in the presence or absence of IKE. The data set is classed as cell-based. The note with it: for toxicity of free fatty acid to cells: high concentration (100 μM); for effect of free fatty acid on ferroptosis: 10 μM, in the presence of IKE.
In data set [23] the test system is SUDHL6 cells. The data set is described as follows: IKE PEG-PLGA cellular activity, CellTiter-Glo viability.
The subject of data set [24] is GSH. The note with it: ref Narang et al., 2007; Lo et al., 2010; cited from earlier work.
Where [25] appears, read: IP injection, SUDHL6 NCG xenograft mice.
The mark [26] stands for this setting: single dose 50 mg/kg IP, SUDHL6-xenograft-bearing NCG mice.
Where [27] appears, read: 10 μM fer-1 with 500 nM IKE, 6 hours, SUDHL6 cells.
Setting [28] is: 10 μM fer-1 co-treatment with 500 nM IKE.

Where only a bound is given, the exact number is not on record here.

As to `CC(=O)N(O)CCCCCNC(=O)CCC(=O)N(O)CCCCCNC(=O)CCC(=O)N(O)CCCCCN` [DFO, deferoxamine], the “effect of DFO co-treatment on IKE-induced cell death” value in data set [1] (in culture) is “inhibited IKE-induced cell death”. Besides, the “effect of co-treatment on IKE-induced lipidomic changes” value in [2] is “only partially eliminated lipidomic changes”.
Consider `CC(C)Oc1ccc(C(=O)Cn2ccnc2)cc1-n1c(CN2CCN(C(=O)COc3ccc(Cl)cc3)CC2)nc2ccccc2c1=O` [IKE, imidazole ketone erastin], for which the IC50 in data set [3] is less than 100 nM; in data set [4] it was 100 to 10000 nM; in data set [5], 100 to 10000 nM; in [6], more than 10000 nM; in [7], more than 10000 nM; in data set [8] (read-out: IC50 of GSH depletion, SUDHL-6 cells, 24 h) it was 34 nM. Moreover, the “cellular level of reduced glutathione (GSH)” value in data set [8] (SUDHL6 cells, different concentrations of IKE, 24 hours) was “dose-dependent GSH depletion”. In addition, the “lipid ROS (C11-BODIPY)” value in [9] (different concentrations of IKE) is “dose-dependent increase”. Further, the dihydropyridine-MDA-lysine-adduct abundance entry in data set [10] is listed as “increased”. For the same molecule, the “GPX4, CBS and ACSL4 expression” value in [11] (IKE treatment, data not shown) is “not upregulated”. The “SLC7A11, PTGS2 and CHAC1 expression” value in [11] (SUDHL-6 cells, 500 nM IKE) is listed as “significantly increased”. Moreover, the “comparison of dosage routes by IKE concentration over eight hours” value in [12] was “IP to be the most effective and practical means”. For the same molecule, the T1/2 plasma in [13] (setting [25]) came to 1.83 h. This molecule registered a T1/2 tumor in data set [13] (setting [25]) of 3.50 h. Also, in [13] (setting [26]), the highest plasma concentration came out at 5.2 µg/mL. Also, in [13] (setting [26]), the highest tumor accumulation came out at 2.5 µg/mL. Also, the “time of highest plasma concentration” value in data set [13] (setting [26]) is on record as 1.35 h. Further, in data set [13] (setting [26]), the “time of highest tumor accumulation” value was determined as 3.30 h. Further, the “GSH depletion in tumor tissue” value in [14] is listed as “over 50%”. The “CHAC1 mRNA upregulation in tumor” value in data set [15] was determined as 2 fold. Also, in data set [15], the “PTGS2 mRNA upregulation in tumor” value is 3–5 fold. The “SLC7A11 mRNA upregulation in tumor” value in data set [15] was 3–5 fold. Besides, the mouse weight result in [16] (IKE 23 mg/kg daily) and in [16] (IKE 40 mg/kg daily) was “weight loss” in each case. For the same molecule, the results for the “increase in 8-OH-dG intensity in tumor sections” value in [17] (IKE 23 mg/kg daily for 14 days) and in [17] (IKE 40 mg/kg daily for 14 days) were 1.8 fold and 2.2 fold, respectively. Besides, the “increase in COX-2 intensity in tumor sections” value in data set [17] (IKE 23 mg/kg daily for 14 days) was determined as 2.0 fold; in data set [17] (IKE 40 mg/kg daily for 14 days), 2.8 fold. Besides, the “increase in MDA intensity in tumor sections” value in [17] (IKE 23 mg/kg daily for 14 days) came to 1.8 fold; in data set [17] (IKE 40 mg/kg daily for 14 days), 2.0 fold. The “MDA increase (TBARS, MDA-TBA adduct fluorescence)” value is given as 1.4 fold in [18] (IKE 23 mg/kg) and 1.8 fold in [18] (IKE 40 mg/kg). For the same molecule, the “caspase-3 activity in tumor tissues” value in data set [19] was “no increase in caspase-3 activity”. Besides, the “potency improvement comparing to erastin” value in [20] (in some cell lines) is recorded as more than 100 x. Further, the potency result in [20] is “nanomolar”. Besides, the metabolic stability entry in data set [21] was “high”.
As for `CCCCC/C=C\C/C=C\C/C=C\C/C=C\CCCC(=O)O` [arachidonic acid], the “toxicity of free fatty acid to cells” value in [22] is “toxic to cells”.
`CC/C=C\C/C=C\C/C=C\C/C=C\C/C=C\CCCC(=O)O` [eicosapentaenoic acid]: the “toxicity of free fatty acid to cells” value in [22] is reported as “toxic to cells”.
Take `CCOc1ccccc1-n1c(C(C)N2CCN(C(=O)COc3ccc(Cl)cc3)CC2)nc2ccccc2c1=O` (stereo not drawn) [erastin, reference compound]: the metabolic stability result in [21] is “metabolically labile”.
As to `CCOC(=O)c1ccc(NC2CCCCC2)c(N)c1` [fer-1, ferrostatin-1], the “effect of fer-1 co-treatment on cell death induced by IKE” value in data set [1] (DLBCL cell lines) is “rescued cell death”. The “effect of co-treatment on IKE-induced lipid ROS signal” value in data set [9] (10 μM fer-1 co-treatment) is given as “inhibited this signal”. In addition, the “effect of co-treatment on IKE-induced upregulation of lipid metabolism genes” value in data set [11] (SUDHL6 cells) was “partially reversed”. Besides, in data set [11] (setting [27]), the “effect of co-treatment on IKE-induced CHAC1 upregulation” value is reported as “did not inhibit CHAC1 upregulation” and the “effect of co-treatment on IKE-induced PTGS2 upregulation” value is “inhibited PTGS2 upregulation”. Besides, in [2] (setting [28]), the MAG lipids entry is “decreased” and the TAG lipids entry is recorded as “significantly increased”. For the same molecule, in [23], the “effect of fer-1 co-treatment on cell death induced by IKE and IKE PEG-PLGA NPs” value is given as “rescued cell death”.
On to `CCCCCCCC/C=C\CCCCCCCC(=O)O` [oleic acid], for which the “effect of free fatty acid on ferroptosis” value in data set [22] is “protected against ferroptosis”.
In the case of `CCCCCC/C=C\CCCCCCCC(=O)O` [palmitoleic acid], in [22], the “effect of free fatty acid on ferroptosis” value is recorded as “protected against ferroptosis”.
Take `O=C(O)c1cc(/N=N/c2ccc(S(=O)(=O)Nc3ccccn3)cc2)ccc1O` [sulfasalazine]: in data set [24], the “IC50 for GSH depletion” value was “millimolar range”.
Regarding `OCCS` [β-ME, β-mercaptoethanol], the “effect of co-treatment on IKE-induced GSH depletion” value in data set [8] (10 μM β-ME co-treatment, SUDHL6 cells, 24 hours) is reported as “reversed”. Further, the “effect of co-treatment on IKE-induced upregulation of lipid metabolism genes” value in data set [11] (SUDHL6 cells) is “partially reversed”. In addition, the “effect of co-treatment on IKE-induced upregulation of SLC7A11, PTGS2 and CHAC1” value in data set [11] (10 μM β-ME with 500 nM IKE, 6 hours, SUDHL6 cells) is on record as “prevented”. Also, in [2], the “effect of co-treatment on IKE-induced lipidomic changes” value is “reversed these effects”.
Consider `CCCCC/C=C\C/C=C\C/C=C\CCCCC(=O)O` [γ-linolenic acid], for which the “toxicity of free fatty acid to cells” value in data set [22] is “toxic to cells”.
